Measured values published in ChEMBL document CHEMBL1201862, “PubChem BioAssay data set” (2004).
Activity calls are given as the source filed them. For most assays here, no stated cut-off is given here; in the data, actives have a measured EC50 and inactives only a lower limit.

How the values were obtained:
[1] = molecular target: T1, Heat shock factor protein 1 (Mus musculus, UniProt P38532); assay: enhancement of HSF1-driven luciferase signal – cell-based, NIH3T3, luminescence, dose retest, confirmation (AID 435004); format: functional;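 further: stress induced by proteasome inhibitor MG132 added 30 min after compound; luciferase reporter driven by HSF1 response element in NIH3T3 cells; actives raise luminescence as potentiators of the MG132 stress response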
T1 sequence (P38532 whole entry): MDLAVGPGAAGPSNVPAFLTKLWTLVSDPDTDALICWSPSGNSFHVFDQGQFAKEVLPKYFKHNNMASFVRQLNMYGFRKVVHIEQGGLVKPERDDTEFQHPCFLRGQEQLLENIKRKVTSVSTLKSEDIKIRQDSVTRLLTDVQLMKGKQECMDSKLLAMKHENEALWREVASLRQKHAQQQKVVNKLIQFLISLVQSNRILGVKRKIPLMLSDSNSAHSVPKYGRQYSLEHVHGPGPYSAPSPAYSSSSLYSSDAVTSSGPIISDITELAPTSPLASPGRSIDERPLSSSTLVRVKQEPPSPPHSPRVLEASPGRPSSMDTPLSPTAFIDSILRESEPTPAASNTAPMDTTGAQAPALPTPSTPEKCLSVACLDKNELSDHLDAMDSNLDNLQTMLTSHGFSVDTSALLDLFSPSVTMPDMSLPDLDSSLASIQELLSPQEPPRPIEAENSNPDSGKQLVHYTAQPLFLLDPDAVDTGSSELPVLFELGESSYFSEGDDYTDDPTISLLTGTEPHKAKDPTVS

[2] = molecular target: T2, Protein skinhead-1 (Caenorhabditis elegans, UniProt P34707); format: functional
T2 sequence (P34707 whole entry): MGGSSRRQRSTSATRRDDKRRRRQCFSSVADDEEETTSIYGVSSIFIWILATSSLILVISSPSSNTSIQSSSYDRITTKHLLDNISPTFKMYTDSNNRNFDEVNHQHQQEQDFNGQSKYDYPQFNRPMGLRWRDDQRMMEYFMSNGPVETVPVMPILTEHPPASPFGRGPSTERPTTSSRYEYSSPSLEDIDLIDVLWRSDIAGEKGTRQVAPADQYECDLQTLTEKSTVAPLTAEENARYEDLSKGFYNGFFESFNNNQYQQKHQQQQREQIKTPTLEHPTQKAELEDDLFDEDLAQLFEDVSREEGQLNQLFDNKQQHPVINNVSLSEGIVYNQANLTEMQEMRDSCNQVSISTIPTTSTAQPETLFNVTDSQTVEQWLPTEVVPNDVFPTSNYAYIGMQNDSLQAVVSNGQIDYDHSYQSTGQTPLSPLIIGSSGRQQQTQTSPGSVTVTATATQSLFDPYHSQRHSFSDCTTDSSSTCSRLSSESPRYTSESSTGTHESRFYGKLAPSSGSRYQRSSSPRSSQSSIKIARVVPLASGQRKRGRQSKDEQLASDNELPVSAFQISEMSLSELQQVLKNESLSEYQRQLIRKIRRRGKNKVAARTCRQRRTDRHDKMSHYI

[3] = molecular target: T3, Zinc finger protein mex-5 (Caenorhabditis elegans, UniProt Q9XUB2); assay: potency of MEX-5 RNA-binding blockers – biochemical, C. elegans, fluorescence polarization, dose response (AID 1960)
T3 sequence (Q9XUB2 whole entry): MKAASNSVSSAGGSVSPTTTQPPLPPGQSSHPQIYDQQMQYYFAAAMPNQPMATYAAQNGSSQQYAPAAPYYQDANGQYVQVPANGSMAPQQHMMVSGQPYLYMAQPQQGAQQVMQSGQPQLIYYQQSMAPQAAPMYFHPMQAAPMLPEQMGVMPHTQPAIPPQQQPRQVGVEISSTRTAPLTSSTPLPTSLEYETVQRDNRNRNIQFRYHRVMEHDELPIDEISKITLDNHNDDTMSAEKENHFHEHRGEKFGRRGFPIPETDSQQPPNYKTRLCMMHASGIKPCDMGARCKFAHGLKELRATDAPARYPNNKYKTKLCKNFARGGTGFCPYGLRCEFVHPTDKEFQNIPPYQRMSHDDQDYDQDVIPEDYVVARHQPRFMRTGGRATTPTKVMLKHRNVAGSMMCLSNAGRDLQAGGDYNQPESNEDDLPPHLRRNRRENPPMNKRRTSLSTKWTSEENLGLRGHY

[4] = molecular target: T4, RNA-binding protein pos-1 (Caenorhabditis elegans, UniProt G5EF15); assay: disruptors of C. elegans POS-1 RNA interaction – biochemical, fluorescence polarization, dose response (AID 1964);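 further: purified POS-1 fused to maltose binding protein made in E. coli; potency of compounds blocking POS-1 binding to fluorescent RNA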
T4 sequence (G5EF15 whole entry): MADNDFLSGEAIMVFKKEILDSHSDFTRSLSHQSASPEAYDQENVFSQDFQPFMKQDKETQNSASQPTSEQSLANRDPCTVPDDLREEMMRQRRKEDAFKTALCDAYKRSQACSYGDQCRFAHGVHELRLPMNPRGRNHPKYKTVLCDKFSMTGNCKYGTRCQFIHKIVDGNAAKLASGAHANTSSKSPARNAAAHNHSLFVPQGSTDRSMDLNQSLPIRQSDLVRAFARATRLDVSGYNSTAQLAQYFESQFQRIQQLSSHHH

[5] = alpha-synuclein stem-loop luciferase translation blockers – H4 neuroglioma cells, luminescence, confirmation (AID 1988); format: functional, cell-based
[6] = Luminescence Cell-Based Dose Response HTS to Identify Inhibitors of 5'UTR Stem-Loop Driven Prion Protein mRNA Translation in H4 Neuroglioblastoma Cells. [Related pubchem assays: 1827 (Project Summary), 1813 (Primary HTS)]; format: functional
[7] = molecular target: T5, Corticotropin-releasing factor receptor 2/Corticotropin-releasing factor-binding protein (Homo sapiens, UniProt P24387+Q13324); assay: Dose Response confirmation of uHTS hits for small molecule antagonists of the CRF-binding protein and CRF-R2 receptor complex.; format: functional; settings: read-out: IC50_Mean
T5 sequence (Q13324 whole entry): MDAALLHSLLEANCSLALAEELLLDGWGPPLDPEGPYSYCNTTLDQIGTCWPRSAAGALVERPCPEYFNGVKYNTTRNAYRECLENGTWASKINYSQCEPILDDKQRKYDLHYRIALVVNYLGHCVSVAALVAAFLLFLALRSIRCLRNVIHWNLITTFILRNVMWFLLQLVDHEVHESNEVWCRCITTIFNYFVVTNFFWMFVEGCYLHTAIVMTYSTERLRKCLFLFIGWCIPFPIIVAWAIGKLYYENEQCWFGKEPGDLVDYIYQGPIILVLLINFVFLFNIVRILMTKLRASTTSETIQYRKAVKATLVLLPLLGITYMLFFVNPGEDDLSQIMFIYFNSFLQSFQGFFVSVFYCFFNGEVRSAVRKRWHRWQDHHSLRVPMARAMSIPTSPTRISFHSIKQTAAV
T5 sequence (P24387 whole entry): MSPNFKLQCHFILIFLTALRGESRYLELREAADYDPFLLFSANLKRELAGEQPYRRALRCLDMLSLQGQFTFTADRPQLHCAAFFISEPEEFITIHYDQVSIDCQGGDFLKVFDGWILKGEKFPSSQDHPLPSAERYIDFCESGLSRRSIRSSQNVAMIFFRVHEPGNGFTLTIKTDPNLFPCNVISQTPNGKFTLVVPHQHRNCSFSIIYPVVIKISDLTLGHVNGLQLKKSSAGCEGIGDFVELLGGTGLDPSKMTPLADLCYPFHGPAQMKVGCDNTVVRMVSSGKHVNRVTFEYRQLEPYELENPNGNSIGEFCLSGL

[8] = molecular target: T5, Corticotropin-releasing factor receptor 2/Corticotropin-releasing factor-binding protein; assay: activators of CRF receptor 2 with binding protein – uHTS hits, confirmation (AID 602473); format: functional; settings: read-out: EC50_Mean
[9] = luciferase reporter signal suppression in cells – H4 neuroglioma cells, luminescence, dose response (AID 1990); format: functional, cell-based
[10] = Luminescence Cell-Based Dose Response HTS to Identify Activators of Luciferase Translation or Activity in H4 […] Cells. [Related pubchem assays: 1829 (Project Summary), 1814 (Primary HTS)]; format: functional
[11] = test system: H4; assay: Luminescence Cell-Based Dose Response HTS to Identify Activators of 5'UTR Stem-Loop Driven Prion Protein mRNA Translation in H4 Neuroglioblastoma Cells. [Related pubchem assays: 1829 (Project Summary), 1814 (Primary HTS)]; format: functional; settings: Homo sapiens
[12] = test system: BJ; assay: BJ-TERT fibroblast viability loss – cell-based, RAS-independent, luminescence, dose response (AID 1933); format: functional; settings: Homo sapiens
[13] = test system: BJ; assay: BJ-TERT-LT-ST fibroblast viability loss – cell-based, RAS-independent, luminescence, dose response (AID 1935); format: functional; settings: Homo sapiens;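 further: BJ fibroblasts immortalized with TERT plus LT and ST oncogenes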
[14] = test system: BJ; assay: cells; format: functional, cell-based; settings: Homo sapiens
[15] = DRD fibroblast viability loss – cell-based, non-viral oncogenic, luminescence, dose response (AID 1934); format: functional; settings: Homo sapiens
[16] = NIH3T3 cell viability loss – ATP luminescence, mouse fibroblasts, counter-screen, dose response (AID 2010); format: functional, cell-based;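 further: cells exposed to compound for about 90 hours before reading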
[17] = Trypanosoma cruzi growth suppression in host cells – NIH3T3 host cells, beta-gal luminescence, confirmation (AID 2044); format: functional, cell-based;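 further: intracellular parasites grown in NIH/3T3 mouse fibroblasts as host cells; luminescent beta-galactosidase reporter signal from transgenic T. cruzi replicating inside host cells; inhibitors lower the luminescence signal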

For Cc1ccc(O)c(NC(=O)Cc2ccc3ccccc3c2)c1, the EC50 [1] was 7.7 µM (active).
For O=C(Nc1nc(-c2ccc(Cl)s2)cs1)c1ccco1, the IC50 [2] was 13.7 µM (active).
With COC(=O)c1ccc(-n2c(C)cc(C(=O)COC(=O)CC3Sc4ccccc4NC3=O)c2C)cc1 (stereo unspecified) the EC50 [3] was > 300 µM (not active) and the EC50 [4] was > 300 µM (not active).
With O=S(=O)(Cc1cc(Sc2ccccc2)nc(-c2ccccc2)n1)c1ccccc1 the IC50 [2] was > 100 µM (inactive).
For CN1CCN(C(=O)c2ccccc2N(Cc2ccccc2)S(C)(=O)=O)CC1, the IC50 [2] was > 100 µM (inactive).
For CCCCc1ccc(NS(=O)(=O)c2c(C)n(C)c(=O)n(C)c2=O)cc1, the EC50 [1] was > 260 µM (inactive).
With Sc1nc(-c2ccc(Br)cc2)cn1CCc1ccccc1 the EC50 [1] was > 260 µM (inactive).
For COc1cc(/C=C2/N=C(c3ccccc3)OC2=O)c(F)cc1OCc1ccccc1, the EC50 [3] was > 300 µM (inconclusive) and the EC50 [4] was > 300 µM (not active).
With O=c1oc2ccccc2c(NC2CCCCC2)c1NS(=O)(=O)c1ccc(Cl)cc1 the EC50 [1] was 120 µM (active).
For CCOc1ccc(-c2nc(N)ncc2Oc2cccc(OC)c2)c(O)c1, the EC50 [5] was > 60 µM (not active), the EC50 [6] was 16.4 µM (active) and the IC50 [2] was > 100 µM (inactive). For the same molecule, the IC50 [7] was > 47.1 µM (inactive), the EC50 [8] was > 53 µM (inactive) and the EC50 [9] was > 120 µM (not active).
For Brc1ccc2oc(-c3cc[nH]n3)cc2c1, the EC50 [10] was 0.281 µM (active), the EC50 [11] was 93.8 µM (active) and the IC50 [2] was 80 µM (inactive).
In the case of O=c1/c(=C/c2ccccc2)sc2nnc(-c3cccs3)n12, the EC50 [1] is reported as 23.3 µM (active).
With O=C(CC1Sc2ccccc2NC1=O)NNc1cc(Cl)ccc1Cl (stereo unspecified) the IC50 [2] was > 100 µM (inactive).
In the case of COc1cc(CC(=O)N(c2ccccc2)c2nc(C)cs2)cc(OC)c1OC, the EC50 [1] is reported as > 260 µM (inactive).
For Cc1ccc(C(=O)c2cc([N+](=O)[O-])ccc2N2CCN(C)CC2)cc1, the EC50 [12] was 12.5 µM (active), the EC50 [13] was 13.5 µM (inconclusive) and the EC50 [14] was 21.1 µM (inconclusive). For the same molecule, the EC50 [15] was 15.8 µM (inconclusive).
For Cc1cc(C)c(OCCN(C)Cc2ccccc2)c(Br)c1, the EC50 [16] was > 60 µM (not active), the EC50 [17] was 1.68 µM (active) and the IC50 [7] was > 47.1 µM (inactive). The EC50 [8] was > 53 µM (inactive).
With O=C1NC(=O)N(c2ccccc2F)C(=O)/C1=C/c1cn(CC(=O)N2CCOCC2)c2ccccc12 the EC50 [3] was > 300 µM (not active) and the EC50 [4] was > 300 µM (not active).
In the case of Cc1nc2nc(C)c(CCC(=O)N3CCN(c4ccccc4)CC3)c(C)n2n1, the IC50 [2] is reported as > 100 µM (inactive).
For CC1(O)C(=O)C=C2C=C(C3CC3)OC=C2C1=O (stereo unspecified), the EC50 [3] was 17.8 µM (active) and the EC50 [4] was 41.3 µM (active).
In the case of Cc1cc(C(=O)N/N=C/c2ccc(-c3cccc(Cl)c3Cl)o2)[nH]n1, the EC50 [3] is reported as 10.2 µM (active) and the EC50 [4] is reported as 28.3 µM (active).
With COc1ccc(/C=C/c2cc(C(F)(F)F)nc(O)n2)cc1OC the EC50 [3] was > 300 µM (not active) and the EC50 [4] was > 300 µM (not active).
In the case of CCCCCCC1CCC(C(=O)NC(CCSC)C(=O)NC(C(=O)OC)C(C)C)CC1 (stereo unspecified), the EC50 [1] is reported as > 260 µM (inactive).
For CCC(C)NC(=O)c1nc(O)c2nnn(Cc3ccccc3Cl)c2n1 (stereo unspecified), the EC50 [1] was > 260 µM (inactive).
In the case of Fc1ccccc1OCCSc1nc2ccccc2o1, the IC50 [2] is reported as 36.3 µM (active).
For COC(=O)c1ccc(C#Cc2ccccc2)o1, the IC50 [2] was > 100 µM (inactive).
For COc1ccc(/C=N/OCC(=O)N=Nc2c(O)[nH]c3ccc(Br)cc23)cc1, the IC50 [7] was 5.15 µM (active) and the EC50 [8] was > 53 µM (inactive).
In the case of CCN1CCN(Cc2c(O)ccc3c2O/C(=C\c2ccccc2)C3=O)CC1, the EC50 [3] is reported as 57.9 µM (active) and the EC50 [4] is reported as 30.3 µM (active).
In the case of N#CCCn1cc(C=C(C#N)C#N)c(-c2ccc(-c3ccccc3)cc2)n1, the EC50 [1] is reported as 7.51 µM (active).
In the case of CCOc1ccc(Br)cc1S(=O)(=O)NC(=O)c1ccccc1, the EC50 [3] is reported as > 300 µM (not active) and the EC50 [4] is reported as > 300 µM (not active).
With O=[N+]([O-])c1ccc(Nc2ccc(Cl)cc2)nc1 the IC50 [2] was > 100 µM (inactive).
For Cc1ccn2cc(CSc3ccccc3N)nc2c1, the IC50 [7] was > 47.1 µM (inactive) and the EC50 [8] was > 53 µM (inactive).
In the case of CCN(CC)S(=O)(=O)c1cc(OC)c(C)cc1C, the IC50 [7] is reported as > 47.1 µM (inactive) and the EC50 [8] is reported as > 53 µM (inactive).
